The text below walks through data of patent US20090270442A1, “POLYMORPHS OF HYDROCHLORIDE SALT OF 5-(3-(ETHYLSULFONYL)PHENYL)-3,8-DIMETHYL-N-(1-METHYLPIPERIDIN-4-YL)-9H-PYRIDO[2,3-B]INDOLE-7-CARBOXAMIDE AND METHODS OF USE THEREFOR” (TAKEDA PHARMACEUTICAL COMPANY LIMITED, priority 2008, published 2009).

Values after ≈ are worked out from the molar mass of the structure shown. Like-named read-outs stand apart in the source and are kept apart here.

Type in all cases: physicochemical
Series [1] is described as follows: Solvent screen: solubility of Compound 1 in various solvents (Table 16). On the procedure: Compound 1 as prepared by the method described in Example I may be used as the starting material for preparation of other polymorphic forms. The methods for testing the solubility of Compound 1 are described in Example 3, and the solubilities of Compound 1 in various solvents are summarized in Table 16. […] A solubility study of Compound 1 in various solvents was executed to select appropriate solvents for the further crystallizations. The material was placed in vials and the solvent was added in 250 μL portions. Solvents were picked based on differences in polarity and functionality and on their classification according to the International Conference on Harmonization (ICH), with preferences given to class II and class III solvents. After each addition of solvent, the vials were visually inspected for residual solids, and further heating to 55° C. to ensure dissolution.

Series [2] is described as follows: Solubility study of Form A in DI water and 20 mM phosphate buffer (pH 3.2) (Table 37). The following applies: for pH (final, 1 week): supernatant after 1 week slurry; for solubility at 1 day: read-out: Solubility mg/mL (1 day); for solubility at 1 week: read-out: Solubility mg/mL (1 week). On the procedure: The solubility measurement of Compound 1 Form A was performed in DI water (Milli-Q) and in 20 mM phosphate buffer (pH 3.2), see Table 37. Each vial was charged with 50-55 mg of Compound 1 and 1 mL of the corresponding solvent.
Both slurries were stirred at room temperature for approximately 19 hours. An aliquot (0.2 mL) was taken from each sample for the solubility determination and XRPD test. […] Both slurries were allowed to stir for an additional 6 days at room temperature. The pH of the supernatant liquid and solubility were determined following the 1 week slurry.

Series [3] in a line: Moisture-sorption analysis (adsorption/desorption, then drying 1 h at 80° C. and XRPD) (Table 40). The conditions noted are these: for XRPD pattern after drying: dried for one hour at 80° C. On the procedure:
Moisture-sorption experiments were carried out on three forms by first drying the sample at 0% RH and 25° C. until an equilibrium weight was reached or for a maximum of four hours. The sample was then subjected to an isothermal (25° C.) adsorption scan from 10 to 90% RH in steps of 10%. The sample was allowed to equilibrate to an asymptotic weight at each point for a maximum of four hours. Following adsorption, a desorption scan from […] to 0% RH (at 25° C.) was run in steps of −10%, again allowing a maximum of four hours for equilibration to an asymptotic weight. The sample was then dried for one hour at 80° C. and the resulting solid analyzed by XRPD.

Series [4] can be described thus: Karl Fischer analysis (KF), water content. The following applies: for water content by KF: theoretical for a monohydrate 3.2%. On the procedure: Water content was determined by adding solid sample to the instrument with HYDRANAL-Coulomat AD. Micrograms of water were determined by coulometric titration.
Series [5] can be described thus: Humidity chamber study at 0% and 95% RH, one week, XRPD and KF (Table 38). The following applies: 0 and 95% RH for one week, ambient temperature. On the procedure:
The 0% RH chamber was prepared with drierite and the 95% RH chamber was made with a saturated solution of Na2HPO4.12H2O in DI water. The chambers were equilibrated for >1 week prior to introducing samples. Samples were placed in Teflon-lined caps for scintillation vials and allowed to equilibrate for one week then analyzed by XRPD and KF to determine form and water content.
FIG. 60 summarizes the conversion of the forms of Compound 1 observed from slurry and humidity chamber studies.

Series [6] is described as follows: Drying study of Form A under vacuum at 40-85° C., XRPD and OVI (Table 39). As to the method:
Approximately 100 mg of sample was weighed into an individual 20-mL headspace vial and 5 mL of DMSO added. The vial was then sealed and gentle shaking/vortexing was used to ensure sample was entirely dissolved. Blank samples were prepared by transferring 5.0 mL of DMSO into a 20-mL headspace vial and then sealed. Standards were prepared using stock solutions in DMSO. Compound 1 (4.08 g, Form A) was dried under vacuum at 40° C. overnight. A small sample (˜200 mg) was taken for XRPD and OVI tests. The rest of the material was further dried under vacuum at 55° C. overnight. A second sample (˜200 mg) was taken for XRPD and OVI tests. The oven temperature was increased to 70° C. and the material was further dried under vacuum at 70° C. overnight. A third sample (˜200 mg) was taken for XRPD and OVI tests. The oven temperature was then increased to 85° C. and the material was further dried under vacuum over weekend. Analysis by XRPD and OVI was completed as shown in Table 39 along with experimental details.

Series [7] in a line: 1 week slurry experiments in water, IPA, EtOAc, MeCN, EtOH and dioxane, form by XRPD (Table 34). The following applies: for Form (1 wk): RT, resulting form by XRPD. As to the method:
Each vial was charged with approximately 25-30 mg of API and 1 mL of the corresponding solvent, followed by stirring at room temperature for one week. […] The obtained solids were isolated by filtration, dried under vacuum at room temperature and analyzed by XRPD.

[8] abbreviates: 20 mM phosphate buffer slurry, room temperature.
[9] abbreviates: DI water slurry, room temperature.

For the molecule `CCS(=O)(=O)c1cccc(-c2cc(C(=O)NC3CCN(C)CC3)c(C)c3[nH]c4ncc(C)cc4c23)c1.Cl` [Compound 1, 5-(3-(ethylsulfonyl)phenyl)-3,8-dimethyl-N-(1-methylpiperidin-4-yl)-9H-pyrido[2,3-b]indole-7-carboxamide hydrochloride], the solubility in series [1] (55 °C, thermodynamic from solid, solvent water, Temp 55, Soluble No, read-out: Conc.) was ≤ 0.6 mg/mL; in series [1] (in acetone, MeCN, MTBe, EtOAc, IPAc, IPA, THF, 2-Me-THF, DCM, MEK, cyclohexane, heptane and water), “Poor solubility”; in series [1] (in dioxane, MeOH, DMF, DMA, NMP, AcOH and EtOH) it was “Good solubility”. In addition, the Soluble result in series [1] (solvent 2-Me-THF, 0.4 mg/mL, Temp 55) is “No”; in series [1] (solvent AcOH, >9.2 mg/mL, Temp RT), “Yes”; in series [1] (solvent Acetone, 0.3 mg/mL, Temp 55) it was “No”; in series [1] (solvent Chloroform, >8.4 mg/mL, Temp RT) it was “Yes”; in series [1] (solvent DCM, 0.8 mg/mL, Temp RT) it was “No”; in series [1] (solvent DMA, >9.2 mg/mL, Temp RT) it was “Yes”. Further, the Soluble result in series [1] (solvent DMF, >10.4 mg/mL, Temp RT) is given as “Yes”; in series [1] (solvent Dioxane, 0.7 mg/mL, Temp 55), “Yes”; in series [1] (solvent EtOAc, 0.4 mg/mL, Temp 55), “No”; in series [1] (solvent EtOH, 1.2 mg/mL, Temp 55), “Yes”; in series [1] (solvent Heptane, 0.4 mg/mL, Temp 55), “No”; in series [1] (solvent IPA, 0.5 mg/mL, Temp 55) it was “No”. For the same molecule, the Soluble result in series [1] (solvent IPAC, 0.5 mg/mL, Temp 55) was “No”; in series [1] (solvent MEK, 0.6 mg/mL, Temp 55), “No”; in series [1] (solvent MTBE, 0.3 mg/mL, Temp 55), “No”; in series [1] (solvent MeCN, 0.5 mg/mL, Temp 55) it was “No”; in series [1] (solvent MeOH, >10.0 mg/mL, Temp RT), “Yes”; in series [1] (solvent NMP, >10.4 mg/mL, Temp RT), “Yes”. For the same molecule, the Soluble entry in series [1] (solvent THF, 0.4 mg/mL, Temp 55) was “No”; in series [1] (solvent Toluene, 0.4 mg/mL, Temp 55), “No”; in series [1] (solvent c-Hexane, 0.5 mg/mL, Temp 55), “No”; in series [1] (solvent water, 0.6 mg/mL, Temp 55), “No”. Besides, the “Conc.” value in series [1] (solvent 2-Me-THF, Temp 55, Soluble No) is 400 µg/mL; in series [1] (solvent AcOH, Temp RT, Soluble Yes), >9200 µg/mL; in series [1] (solvent Acetone, Temp 55, Soluble No), 300 µg/mL; in series [1] (solvent Chloroform, Temp RT, Soluble Yes), >8400 µg/mL; in series [1] (solvent DCM, Temp RT, Soluble No), 800 µg/mL; in series [1] (solvent DMA, Temp RT, Soluble Yes) it was >9200 µg/mL. Moreover, the “Conc.” value was >10400 µg/mL in series [1] (solvent DMF, Temp RT, Soluble Yes); 700 µg/mL in series [1] (solvent Dioxane, Temp 55, Soluble Yes); 400 µg/mL in series [1] (solvent EtOAc, Temp 55, Soluble No); 1200 µg/mL in series [1] (solvent EtOH, Temp 55, Soluble Yes); 400 µg/mL in series [1] (solvent Heptane, Temp 55, Soluble No); 500 µg/mL in series [1] (solvent IPA, Temp 55, Soluble No). Besides, the “Conc.” value in series [1] (solvent IPAC, Temp 55, Soluble No) is 500 µg/mL; in series [1] (solvent MEK, Temp 55, Soluble No) it was 600 µg/mL; in series [1] (solvent MTBE, Temp 55, Soluble No), 300 µg/mL; in series [1] (solvent MeCN, Temp 55, Soluble No), 500 µg/mL; in series [1] (solvent MeOH, Temp RT, Soluble Yes), >10000 µg/mL; in series [1] (solvent NMP, Temp RT, Soluble Yes), >10400 µg/mL. Further, the “Conc.” value in series [1] (solvent THF, Temp 55, Soluble No) was 400 µg/mL; in series [1] (solvent Toluene, Temp 55, Soluble No) it was 400 µg/mL; in series [1] (solvent c-Hexane, Temp 55, Soluble No) it was 500 µg/mL.

In the case of `CCS(=O)(=O)c1cccc(-c2cc(C(=O)NC3CCN(C)CC3)c(C)c3[nH]c4ncc(C)cc4c23)c1` [Form A], the “XRPD (1 week)” value in series [2] (setting [8]) and in series [2] (setting [9]) was “Form A” throughout. Further, the “XRPD (1 day)” value in series [2] (setting [8]) and in series [2] (setting [9]) was “Form A” throughout. In addition, the figures for the “pH (final, 1 week)” value in series [2] (20 mM phosphate buffer) and in series [2] (DI water) were 3.3 and 5.0, respectively. In series [2] (DI water and 20 mM phosphate buffer (pH 3.2), thermodynamic from solid, DI water and phosphate buffer slurries, after equilibration overnight and 1 week, room temperature), the solubility fell in the range of 3 to 4 mg/mL (≈ 5.94 to 7.93 mM). Besides, the solubility at 1 day in series [2] (aqueous buffer, thermodynamic from solid, 20 mM phosphate buffer, initial pH 3.2, room temperature) came out at 3.3 mg/mL (≈ 6.54 mM); in series [2] (thermodynamic from solid, DI water, initial pH 8.1, room temperature) it was 3.1 mg/mL (≈ 6.14 mM). Besides, the solubility at 1 week was 4.1 mg/mL (≈ 8.12 mM) in series [2] (pH 3.2, aqueous buffer, thermodynamic from solid, 20 mM phosphate buffer, room temperature) and 4.3 mg/mL (≈ 8.52 mM) in series [2] (pH 8.1, thermodynamic from solid, DI water, room temperature). Also, the “stability of the hydrate over relative humidity (moisture sorption curve)” value in series [3] (25° C.) was “stable from 5 to 90% RH”. In series [3] (at 90% RH, 25° C.), this molecule showed a maximum moisture uptake of 4.2 wt %. The “XRPD pattern after drying” value in series [3] was “consistent with Form A”. Besides, the “water content by KF after heating” value in series [4] (another sample, after heating) is 3.0%. In series [4] (another sample, before heating), the “water content by KF before heating” value came out at 3.1%. Also, the “water content by KF” value in series [4] was 3.7%. Further, in series [5], the “change in form upon humidity exposure” value is listed as “did not show a change in form”. For the same molecule, the “Residual Amt of MeCN by OVI (ppm)” value in series [6] (dried under vacuum at 40° C., time at temperature 16) is recorded as 1353 ppm; in series [6] (dried under vacuum at 55° C., time at temperature 24 (total 40)), 1303 ppm; in series [6] (dried under vacuum at 70° C., time at temperature 24 (total 64)), 1113 ppm; in series [6] (dried under vacuum at 85° C., time at temperature 72 (total 136)), 670 ppm.

As for `CCS(=O)(=O)c1cccc(-c2cc(C(=O)NC3CCN(C)CC3)c(C)c3[nH]c4ncc(C)cc4c23)c1` [Form L], in series [3] (25° C.), the “hygroscopicity (moisture sorption curve)” value is given as “moderately hygroscopic” and the hysteresis upon desorption entry was “not observed”. In series [3] (at 90% RH, 25° C.), this molecule registered a maximum water uptake of 3.9%. For the same molecule, the “XRPD pattern after drying” value in series [3] is “same pattern before and after drying”. The “water content by KF” value in series [4] amounted to 2.9%. Moreover, in series [7] (solvents other than water, room temperature, one week), the “form after slurry in non-aqueous solvents” value is recorded as “to the anhydrate Form C”. In addition, in series [7] (room temperature, one week), the “form isolated after slurry in water” value is “convert to the monohydrate Form A”.

`CCS(=O)(=O)c1cccc(-c2cc(C(=O)NC3CCN(C)CC3)c(C)c3[nH]c4ncc(C)cc4c23)c1` [Form N]: the “Form (1 wk)” value in series [7] (1 week slurry in Dioxane (1.0 mL)), in series [7] (1 week slurry in EtOAc (1.0 mL)) and in series [7] (1 week slurry in IPA (1.0 mL)) was “C + P” in each case. In series [7] (room temperature, one week), the “form isolated after slurry in water” value is on record as “Form A”.
